Test results: patent US8735584B2 (Merck Patent GmbH, priority 2008, dated 2014)

Tests used:
GSK3b = molecular target: T1, GSK3b (Homo sapiens, UniProt P49841); test: Desktop Profiler kinase panel, GSK3b; assay type: biochemical; conditions: 10 micromolar concentration of the compound; read-out: Percent Inhibition GSK3b
T1 construct: purchased Caliper Life Sciences
Procedure: (§1) The Aurora assays described here are performed on two Caliper Life Sciences systems: the LC3000 and the Desktop Profiler. These provide data on enzyme activity via measurement of the relative amounts of phosphorylated or unphosphorylated fluorescently labelled substrate peptide at the end of an enzymatic reaction. These different states of peptide are resolved by applying a potential difference across the sample. The presence of the charged phosphate group on the product (as opposed to the substrate) causes a different peptide mobility between the two peptides. This is visualized by excitation of the fluorescent label on the substrate and product peptides and represented as peaks within the analysis software.
(§2) The Desktop Profiler utilizes the same principle as the LC3000 for calculating percentage conversion of a substrate to product. Caliper Life Sciences provides proprietary flash frozen pre-made 384 well plates containing selected kinases. Each column in the 384 well plate contains a particular selected kinase. A second plate, the ‘substrate plate’ contains a mix of fluorescently labeled peptide substrate and ATP. These are arranged in columns so that transfer for substrate plate to enzyme plate provides the correct enzyme with the correct substrate/ATP concentration. Compounds are added to a thawed enzyme plate in the desired format, in single concentrations. Reactions are initiated by transfer of the substrate/ATP mix from the substrate plate. The enzyme plate is incubated for 90 mins at 25 C. The reaction is stopped by addition of 70 ul of Stop Buffer (100 mM HEPES pH 7.5, 0.015% Brij-35, 10 mM EDTA (Sigma, E7889)).
(§3) Reading of the plate in the Profiler is identical to the LC3000, and the ratio between substrate and product peaks provides the activity of the enzyme in that well. This is best represented by a plate heat map which colors each well by percent inhibition as compared to positive and negative controls (no inhibitors and no ATP respectively).
(§4) In the following Tables 3a-4-b, which show the results of the desktop profiler measurements, “+” means 50-70% inhibition, “++” means 70-90% inhibition, and “+++” means >90% inhibition. The enzymes tested for profiling were ABL, AKT1, AKT2, AurA, CHK1, CHK2, CK1d, Erk1, Erk2, FYN, GSK3b, INSR, LCK, LYN, MAPKAPK2, MET, MSK1, p38a, PKA, PKCz, PKD2, PRAK, RSK1 and SRC.

ABL = molecular target: T2, ABL (Homo sapiens, UniProt P00519); test: Desktop Profiler kinase panel, ABL; assay type: biochemical; conditions: for inhibition at 10 µM: 10 micromolar concentration of the compound, read-out: Percent Inhibition ABL; for inhibition at 1 µM: 1 micromolar concentration of the compound
T2 construct: purchased Caliper Life Sciences
T2 sequence (P00519 whole entry, species assumed): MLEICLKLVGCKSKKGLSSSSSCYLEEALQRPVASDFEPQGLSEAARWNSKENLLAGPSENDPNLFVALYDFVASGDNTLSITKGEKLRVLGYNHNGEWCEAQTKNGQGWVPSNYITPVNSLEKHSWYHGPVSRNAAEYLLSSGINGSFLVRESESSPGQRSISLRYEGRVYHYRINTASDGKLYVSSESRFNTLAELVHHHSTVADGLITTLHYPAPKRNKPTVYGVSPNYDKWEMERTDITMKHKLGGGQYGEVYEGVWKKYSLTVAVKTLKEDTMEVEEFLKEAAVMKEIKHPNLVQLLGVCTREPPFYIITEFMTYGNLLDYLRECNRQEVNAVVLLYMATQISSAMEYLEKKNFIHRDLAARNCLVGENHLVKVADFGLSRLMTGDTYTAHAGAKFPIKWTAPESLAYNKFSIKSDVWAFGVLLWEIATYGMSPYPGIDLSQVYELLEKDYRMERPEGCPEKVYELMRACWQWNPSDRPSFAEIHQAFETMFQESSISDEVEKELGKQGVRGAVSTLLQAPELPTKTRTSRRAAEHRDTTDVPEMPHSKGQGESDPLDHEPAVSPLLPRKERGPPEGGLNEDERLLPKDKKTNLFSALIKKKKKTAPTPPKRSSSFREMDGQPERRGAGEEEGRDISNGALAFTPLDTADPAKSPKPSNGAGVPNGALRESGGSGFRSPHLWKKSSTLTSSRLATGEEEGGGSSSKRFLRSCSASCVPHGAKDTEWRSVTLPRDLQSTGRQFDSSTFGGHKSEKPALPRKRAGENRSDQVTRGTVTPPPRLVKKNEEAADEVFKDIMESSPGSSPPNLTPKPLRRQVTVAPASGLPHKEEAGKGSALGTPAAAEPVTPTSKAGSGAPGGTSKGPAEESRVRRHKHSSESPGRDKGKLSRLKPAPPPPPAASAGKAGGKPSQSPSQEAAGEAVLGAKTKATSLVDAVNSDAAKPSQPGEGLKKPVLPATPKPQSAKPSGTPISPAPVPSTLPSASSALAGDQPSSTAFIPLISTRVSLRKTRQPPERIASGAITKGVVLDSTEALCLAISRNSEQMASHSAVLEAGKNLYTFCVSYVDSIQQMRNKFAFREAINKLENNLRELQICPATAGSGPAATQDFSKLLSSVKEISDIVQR
Procedure: as §1, §2, §3, §4

PKA = molecular target: T3, PKA (Homo sapiens, UniProt P17612); test: Desktop Profiler kinase panel, PKA; assay type: biochemical; conditions: 10 micromolar concentration of the compound; read-out: Percent Inhibition PKA
T3 construct: purchased Caliper Life Sciences
Procedure: as §1, §2, §3, §4

CK1d = molecular target: T4, CK1d (Homo sapiens, UniProt P48730); test: Desktop Profiler kinase panel, CK1d; assay type: biochemical; conditions: for inhibition at 10 µM: 10 micromolar concentration of the compound, read-out: Percent Inhibition CK1d
T4 construct: purchased Caliper Life Sciences
T4 sequence (P48730 whole entry): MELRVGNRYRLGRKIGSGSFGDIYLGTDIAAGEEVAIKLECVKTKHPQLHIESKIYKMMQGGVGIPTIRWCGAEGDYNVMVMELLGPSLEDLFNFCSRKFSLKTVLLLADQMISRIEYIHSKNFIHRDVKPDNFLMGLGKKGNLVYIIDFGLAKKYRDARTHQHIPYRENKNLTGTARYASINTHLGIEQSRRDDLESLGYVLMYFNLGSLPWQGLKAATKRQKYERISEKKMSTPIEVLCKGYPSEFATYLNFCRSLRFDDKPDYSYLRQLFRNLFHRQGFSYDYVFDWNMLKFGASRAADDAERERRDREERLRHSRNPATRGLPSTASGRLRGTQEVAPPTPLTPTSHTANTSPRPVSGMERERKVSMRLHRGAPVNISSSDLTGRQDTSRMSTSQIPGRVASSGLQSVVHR
Procedure: as §1, §2, §3, §4

LYN = molecular target: T5, LYN (Homo sapiens, UniProt P07948); test: Desktop Profiler kinase panel, LYN; assay type: biochemical; conditions: for inhibition at 1 µM: 1 micromolar concentration of the compound; for inhibition at 10 µM: 10 micromolar concentration of the compound, read-out: Percent Inhibition LYN
T5 construct: purchased Caliper Life Sciences
T5 sequence (P07948 whole entry, species assumed): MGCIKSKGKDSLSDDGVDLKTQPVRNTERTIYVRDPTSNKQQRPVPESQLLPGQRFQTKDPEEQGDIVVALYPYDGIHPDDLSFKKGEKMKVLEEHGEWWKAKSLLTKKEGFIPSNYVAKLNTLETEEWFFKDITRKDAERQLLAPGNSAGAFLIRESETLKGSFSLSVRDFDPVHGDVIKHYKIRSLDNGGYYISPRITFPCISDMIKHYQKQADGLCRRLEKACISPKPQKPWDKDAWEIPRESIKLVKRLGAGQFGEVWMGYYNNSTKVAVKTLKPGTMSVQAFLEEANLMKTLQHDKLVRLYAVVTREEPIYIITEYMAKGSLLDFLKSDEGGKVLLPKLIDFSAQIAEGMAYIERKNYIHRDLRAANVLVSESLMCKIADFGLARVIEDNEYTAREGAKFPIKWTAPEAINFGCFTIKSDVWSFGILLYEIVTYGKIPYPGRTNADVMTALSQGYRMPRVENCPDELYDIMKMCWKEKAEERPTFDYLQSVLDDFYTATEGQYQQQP
Procedure: as §1, §2, §3, §4

SRC = molecular target: T6, SRC (Homo sapiens, UniProt P12931); test: Desktop Profiler kinase panel, SRC; assay type: biochemical; conditions: for inhibition at 1 µM: 1 micromolar concentration of the compound; for inhibition at 10 µM: 10 micromolar concentration of the compound, read-out: Percent Inhibition SRC
T6 construct: purchased Caliper Life Sciences
T6 sequence (P12931 whole entry, species assumed): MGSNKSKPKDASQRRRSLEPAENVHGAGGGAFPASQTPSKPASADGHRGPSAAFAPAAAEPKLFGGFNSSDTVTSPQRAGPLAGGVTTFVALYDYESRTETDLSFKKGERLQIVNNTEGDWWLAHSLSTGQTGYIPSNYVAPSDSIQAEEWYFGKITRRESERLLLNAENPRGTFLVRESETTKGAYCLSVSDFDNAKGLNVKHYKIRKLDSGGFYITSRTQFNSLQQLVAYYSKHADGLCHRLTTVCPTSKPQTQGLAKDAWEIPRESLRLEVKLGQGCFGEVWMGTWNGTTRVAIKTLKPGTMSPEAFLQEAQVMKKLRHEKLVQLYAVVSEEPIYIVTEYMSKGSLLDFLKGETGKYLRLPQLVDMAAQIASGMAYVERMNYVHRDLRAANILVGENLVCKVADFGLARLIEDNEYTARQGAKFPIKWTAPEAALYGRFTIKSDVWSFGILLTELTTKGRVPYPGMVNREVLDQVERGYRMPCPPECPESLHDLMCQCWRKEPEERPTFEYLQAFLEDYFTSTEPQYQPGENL
Procedure: as §1, §2, §3, §4

AKT2 = molecular target: T7, AKT2 (Homo sapiens, UniProt P31751); test: Desktop Profiler kinase panel, AKT2; assay type: biochemical; conditions: 10 micromolar concentration of the compound; read-out: Percent Inhibition AKT2
T7 construct: purchased Caliper Life Sciences
Procedure: as §1, §2, §3, §4

FYN = molecular target: T8, FYN (Homo sapiens, UniProt P06241); test: Desktop Profiler kinase panel, FYN; assay type: biochemical; conditions: for inhibition at 1 µM: 1 micromolar concentration of the compound; for inhibition at 10 µM: 10 micromolar concentration of the compound, read-out: Percent Inhibition FYN
T8 construct: purchased Caliper Life Sciences
T8 sequence (P06241 whole entry, species assumed): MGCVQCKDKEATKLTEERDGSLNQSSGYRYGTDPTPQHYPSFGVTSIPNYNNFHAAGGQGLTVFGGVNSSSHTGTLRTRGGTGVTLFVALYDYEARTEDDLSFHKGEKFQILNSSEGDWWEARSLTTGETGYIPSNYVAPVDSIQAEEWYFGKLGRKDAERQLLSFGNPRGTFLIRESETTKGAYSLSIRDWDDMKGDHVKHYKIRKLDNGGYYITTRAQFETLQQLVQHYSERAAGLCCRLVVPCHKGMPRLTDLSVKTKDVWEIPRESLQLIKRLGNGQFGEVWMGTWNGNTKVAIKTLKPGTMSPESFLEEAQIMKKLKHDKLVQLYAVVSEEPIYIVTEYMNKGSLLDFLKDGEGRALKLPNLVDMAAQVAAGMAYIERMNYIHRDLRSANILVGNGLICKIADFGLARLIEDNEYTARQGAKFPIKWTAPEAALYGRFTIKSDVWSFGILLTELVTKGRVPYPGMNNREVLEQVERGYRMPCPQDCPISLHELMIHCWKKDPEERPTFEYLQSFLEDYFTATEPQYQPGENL
Procedure: as §1, §2, §3, §4

AurA = molecular target: T9, AurA (Homo sapiens, UniProt O14965); test: Desktop Profiler kinase panel, AurA; assay type: biochemical; conditions: for inhibition at 10 µM: 10 micromolar concentration of the compound, read-out: Percent Inhibition AurA; for inhibition at 1 µM: 1 micromolar concentration of the compound
T9 construct: purchased Caliper Life Sciences
T9 sequence (O14965 1-403): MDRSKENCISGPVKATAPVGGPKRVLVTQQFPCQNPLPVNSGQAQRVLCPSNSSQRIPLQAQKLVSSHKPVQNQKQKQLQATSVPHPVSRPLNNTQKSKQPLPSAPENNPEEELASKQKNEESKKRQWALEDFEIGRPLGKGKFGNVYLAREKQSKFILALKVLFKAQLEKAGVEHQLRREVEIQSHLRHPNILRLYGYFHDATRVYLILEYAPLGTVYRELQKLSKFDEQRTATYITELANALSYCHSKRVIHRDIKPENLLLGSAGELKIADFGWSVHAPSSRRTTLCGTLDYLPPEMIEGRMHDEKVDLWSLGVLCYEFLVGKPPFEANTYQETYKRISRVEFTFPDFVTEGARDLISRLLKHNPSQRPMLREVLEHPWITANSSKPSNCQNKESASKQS
Procedure: as §1, §2, §3, §4

PKD2 = molecular target: T10, PKD2 (Homo sapiens, UniProt Q9BZL6); test: Desktop Profiler kinase panel, PKD2; assay type: biochemical; conditions: 10 micromolar concentration of the compound; read-out: Percent Inhibition PKD2
T10 construct: purchased Caliper Life Sciences
T10 sequence (Q9BZL6 1-878): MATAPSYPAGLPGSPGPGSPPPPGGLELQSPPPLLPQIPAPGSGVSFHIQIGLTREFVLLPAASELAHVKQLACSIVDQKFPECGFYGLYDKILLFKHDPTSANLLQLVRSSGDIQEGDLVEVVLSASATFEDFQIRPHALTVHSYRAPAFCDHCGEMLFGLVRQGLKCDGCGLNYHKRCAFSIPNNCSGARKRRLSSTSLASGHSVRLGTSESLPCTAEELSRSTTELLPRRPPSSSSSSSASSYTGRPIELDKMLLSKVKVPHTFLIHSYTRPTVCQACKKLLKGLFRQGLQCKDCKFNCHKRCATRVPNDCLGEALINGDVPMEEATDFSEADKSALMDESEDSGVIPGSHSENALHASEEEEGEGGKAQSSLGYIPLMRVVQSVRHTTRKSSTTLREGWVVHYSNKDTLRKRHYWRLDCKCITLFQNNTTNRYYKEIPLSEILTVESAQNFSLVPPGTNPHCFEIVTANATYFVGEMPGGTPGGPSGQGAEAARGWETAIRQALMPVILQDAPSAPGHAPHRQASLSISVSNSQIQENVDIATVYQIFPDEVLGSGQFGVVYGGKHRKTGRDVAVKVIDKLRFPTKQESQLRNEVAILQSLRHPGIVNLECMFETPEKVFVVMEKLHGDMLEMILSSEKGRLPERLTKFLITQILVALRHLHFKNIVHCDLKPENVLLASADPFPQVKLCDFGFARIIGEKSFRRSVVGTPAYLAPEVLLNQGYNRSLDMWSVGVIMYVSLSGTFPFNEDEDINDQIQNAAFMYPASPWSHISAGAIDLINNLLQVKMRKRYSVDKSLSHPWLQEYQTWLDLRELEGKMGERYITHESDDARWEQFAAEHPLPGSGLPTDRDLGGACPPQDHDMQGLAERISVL
Procedure: as §1, §2, §3, §4

CHK2 = molecular target: T11, CHK2 (Homo sapiens, UniProt O96017); test: Desktop Profiler kinase panel, CHK2; assay type: biochemical; conditions: for inhibition at 10 µM: 10 micromolar concentration of the compound, read-out: Percent Inhibition CHK2; for inhibition at 1 µM: 1 micromolar concentration of the compound
T11 construct: purchased Caliper Life Sciences
T11 sequence (O96017 whole entry, species assumed): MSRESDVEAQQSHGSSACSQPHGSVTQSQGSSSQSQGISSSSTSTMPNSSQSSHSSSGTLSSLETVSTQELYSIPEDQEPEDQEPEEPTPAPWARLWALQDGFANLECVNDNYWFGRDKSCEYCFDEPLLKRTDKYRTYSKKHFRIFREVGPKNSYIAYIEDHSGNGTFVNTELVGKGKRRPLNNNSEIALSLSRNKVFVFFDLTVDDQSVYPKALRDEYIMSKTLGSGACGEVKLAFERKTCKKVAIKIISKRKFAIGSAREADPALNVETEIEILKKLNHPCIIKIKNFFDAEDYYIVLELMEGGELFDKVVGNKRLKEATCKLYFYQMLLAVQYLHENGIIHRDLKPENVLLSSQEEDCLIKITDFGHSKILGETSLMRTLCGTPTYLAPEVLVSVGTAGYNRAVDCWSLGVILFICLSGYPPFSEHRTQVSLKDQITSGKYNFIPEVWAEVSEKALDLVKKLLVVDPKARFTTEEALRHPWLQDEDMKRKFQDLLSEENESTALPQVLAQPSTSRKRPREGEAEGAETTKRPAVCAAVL
Procedure: as §1, §2, §3, §4

p38a = molecular target: T12, p38a (Homo sapiens, UniProt Q16539); test: Desktop Profiler kinase panel, p38a; assay type: biochemical; conditions: 1 micromolar concentration of the compound
T12 construct: purchased Caliper Life Sciences
T12 sequence (Q16539 whole entry): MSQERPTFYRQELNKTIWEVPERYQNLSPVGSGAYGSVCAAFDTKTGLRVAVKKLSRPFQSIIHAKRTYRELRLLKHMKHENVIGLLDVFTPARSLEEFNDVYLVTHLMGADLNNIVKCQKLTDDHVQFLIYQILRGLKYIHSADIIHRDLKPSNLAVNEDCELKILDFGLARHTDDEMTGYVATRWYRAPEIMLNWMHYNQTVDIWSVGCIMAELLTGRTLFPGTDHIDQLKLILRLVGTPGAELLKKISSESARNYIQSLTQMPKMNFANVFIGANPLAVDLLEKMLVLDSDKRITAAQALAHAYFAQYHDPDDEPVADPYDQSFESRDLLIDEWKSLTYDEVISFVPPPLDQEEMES
Procedure: as §1
The Desktop Profiler utilizes the same principle as the LC3000 for calculating percentage conversion of a substrate to product. Caliper Life Sciences provides proprietary flash frozen pre-made 384 well plates containing selected kinases. Each column in the 384 well plate contains a particular selected kinase. A second plate, the ‘substrate plate’ contains a mix of fluorescently labeled peptide substrate and ATP. […]
Reading of the plate in the Profiler is identical to the LC3000, and the ratio between substrate and product peaks provides the activity of the enzyme in that well. […]

RSK1 = molecular target: T13, RSK1 (Homo sapiens, UniProt Q15418); test: Desktop Profiler kinase panel, RSK1; assay type: biochemical; conditions: 10 micromolar concentration of the compound; read-out: Percent Inhibition RSK1
T13 construct: purchased Caliper Life Sciences
Procedure: as §1, §2, §3, §4

LCK = molecular target: T14, LCK (Homo sapiens, UniProt P06239); test: Desktop Profiler kinase panel, LCK; assay type: biochemical; conditions: for inhibition at 10 µM: 10 micromolar concentration of the compound, read-out: Percent Inhibition LCK
T14 construct: purchased Caliper Life Sciences
T14 sequence (P06239 whole entry, species assumed): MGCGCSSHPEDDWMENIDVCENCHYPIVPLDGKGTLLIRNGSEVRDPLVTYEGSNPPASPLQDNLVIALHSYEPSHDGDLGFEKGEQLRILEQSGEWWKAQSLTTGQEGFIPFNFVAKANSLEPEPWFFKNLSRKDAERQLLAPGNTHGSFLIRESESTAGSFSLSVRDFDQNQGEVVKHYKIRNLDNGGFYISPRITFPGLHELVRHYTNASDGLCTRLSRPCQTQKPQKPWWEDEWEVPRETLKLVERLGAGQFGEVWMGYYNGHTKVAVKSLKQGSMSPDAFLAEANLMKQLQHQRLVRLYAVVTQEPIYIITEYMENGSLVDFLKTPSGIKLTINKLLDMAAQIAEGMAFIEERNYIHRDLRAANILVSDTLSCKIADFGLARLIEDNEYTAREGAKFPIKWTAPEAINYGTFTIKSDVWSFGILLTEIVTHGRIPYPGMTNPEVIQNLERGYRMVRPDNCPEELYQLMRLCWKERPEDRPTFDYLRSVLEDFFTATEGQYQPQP
Procedure: as §1, §2, §3, §4

GST-Aurora A = molecular target: T15, GST-Aurora A (Homo sapiens, UniProt O14965); test: Aurora A IC50, Caliper LC3000 mobility shift assay; assay type: biochemical; conditions: LC3000 method; 15 uM ATP (the KM value); read-out: Aurora Kinase A Activity (IC50)
T15 construct: N-terminal GST fusion with full length Aurora A (1-403 amino acids); purchased Carna Biosciences 05-101
T15 sequence (O14965 1-403): T9 sequence (O14965 1-403)
Outline: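 Readout: percent conversion of FITC-LRRASLG (1 uM) to phosphopeptide, resolved electrophoretically on a Caliper LC3000, fitted against inhibitor concentration for IC50. Reaction: N-terminal GST full-length Aurora A, ATP at its KM (15 uM), pH 7.5 HEPES with MgCl2/DTT, 25 C for 90 min.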

[1] = test system: leukemia, colon and pancreatic tumors; conditions: variety of in vivo xenograft models; well-tolerated doses; cited from earlier work
[2] = 1 micromolar concentration of the compound

T1 sequence (P49841 whole entry, species assumed): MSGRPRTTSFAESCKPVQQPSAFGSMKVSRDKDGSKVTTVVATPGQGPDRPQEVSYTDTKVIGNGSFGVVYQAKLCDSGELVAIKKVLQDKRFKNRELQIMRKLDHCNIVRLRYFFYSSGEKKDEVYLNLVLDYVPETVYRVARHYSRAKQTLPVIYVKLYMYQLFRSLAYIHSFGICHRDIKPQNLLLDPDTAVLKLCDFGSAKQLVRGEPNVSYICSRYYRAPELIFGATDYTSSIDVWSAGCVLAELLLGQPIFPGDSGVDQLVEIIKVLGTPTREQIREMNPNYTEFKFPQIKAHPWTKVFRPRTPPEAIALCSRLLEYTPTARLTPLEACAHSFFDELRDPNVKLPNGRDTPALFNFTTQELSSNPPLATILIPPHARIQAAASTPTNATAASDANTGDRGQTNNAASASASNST

SMILES	inhibition at 10 µM (ABL)	inhibition at 10 µM (CK1d)	inhibition at 1 µM (LYN)	inhibition at 10 µM (LYN)	inhibition at 10 µM (SRC)	inhibition at 10 µM (FYN)	inhibition at 10 µM (AurA)	inhibition at 10 µM (CHK2)	further results
Clc1ccc2c(Nc3cccc(Br)c3)nc3ncccc3c2c1 [Example 59, (3-Bromo-phenyl)-(9-chloro-benzo[c][1,8]naphthyridin-6-yl)-amine]	50 to 70%	–	–	–	–	–	–	–	inhibition at 10 µM (GSK3b): 50 to 70%
O=c1[nH]c2nccc(Cl)c2c2ccccc12 [Example 83, 1-Chloro-5H-benzo[c][1,8]naphthyridin-6-one]	–	50 to 70%	–	–	–	–	–	–	inhibition at 10 µM (PKA): 50 to 70%
O=c1[nH]c2nccc(NCc3ccccc3)c2c2ccccc12 [Example 96, 1-Benzylamino-5H-benzo[c][1,8]naphthyridin-6-one]	70 to 90%	50 to 70%	70 to 90%	70 to 90%	50 to 70%	70 to 90%	70 to 90%	50 to 70%	inhibition at 10 µM (GSK3b): 50 to 70%; inhibition at 1 µM (SRC): 50 to 70%; inhibition at 10 µM (AKT2): 50 to 70%; inhibition at 1 µM (FYN): 70 to 90%; inhibition at 1 µM (ABL): 70 to 90%; inhibition at 10 µM (PKD2): 50 to 70%; inhibition at 1 µM (CK1d; [2]): 50 to 70%; inhibition at 1 µM (p38a): 50 to 70%
COc1cccc(CNc2ccnc3[nH]c(=O)c4ccccc4c23)c1 [Example 98, 1-(3-Methoxy-benzylamino)-5H-benzo[c][1,8]naphthyridin-6-one]	–	–	–	50 to 70%	–	50 to 70%	50 to 70%	–	inhibition at 10 µM (PKD2): 50 to 70%
Clc1nc2nccc(NCc3ccccc3)c2c2ccccc12 [Example 103, Benzyl-(6-chloro-benzo[c][1,8]naphthyridin-1-yl)-amine]	70 to 90%	–	–	70 to 90%	70 to 90%	70 to 90%	–	–	inhibition at 10 µM (RSK1): 50 to 70%
COc1ccc(Nc2ccnc3[nH]c(=O)c4ccccc4c23)cc1 [Example 113, 1-(4-Methoxy-phenylamino)-5H-benzo[c][1,8]naphthyridin-6-one]	70 to 90%	–	70 to 90%	> 90%	70 to 90%	–	70 to 90%	70 to 90%	inhibition at 1 µM (LCK; [2]): 50 to 70%; inhibition at 10 µM (LCK): 70 to 90%; inhibition at 1 µM (SRC): 70 to 90%; inhibition at 1 µM (FYN): 70 to 90%; inhibition at 1 µM (ABL): 50 to 70%; inhibition at 1 µM (AurA): 50 to 70%; inhibition at 10 µM (PKA): 50 to 70%; inhibition at 1 µM (CHK2): 50 to 70%
O=C(Nc1ccc(Nc2ccnc3[nH]c(=O)c4ccccc4c23)cc1)c1ccccc1 [Example 120, N-[4-(6-Oxo-5,6-dihydro-benzo[c][1,8]naphthyridin-1-ylamino)-phenyl]-benzamide]	–	50 to 70%	50 to 70%	70 to 90%	50 to 70%	50 to 70%	> 90%	> 90%	inhibition at 1 µM (AurA): > 90%; IC50 (GST-Aurora A): < 11 nM; inhibition at 1 µM (CHK2): > 90%
Clc1nc2nccc(Nc3ccccc3)c2c2ccccc12 [Example 139, (6-Chloro-benzo[c][1,8]naphthyridin-1-yl)-phenyl-amine]	> 90%	–	–	> 90%	> 90%	> 90%	70 to 90%	50 to 70%	inhibition at 10 µM (LCK): 70 to 90%; IC50 (GST-Aurora A): > 100 nM
Cc1cc(Nc2cc(N3CCN(C)CC3)nc(Sc3ccc(NC(=O)C4CC4)cc3)n2)n[nH]1 [VX-680]	–	–	–	–	–	–	–	–	inhibition of tumor growth [1]: profound inhibition of tumor growth
